ChEMBL document CHEMBL5154871, “Non-peptidyl non-covalent cathepsin C inhibitoEEr bearing a unique thiophene-substituted pyridine: Design, structure-activity relationship and anti-inflammatory activity in vivo” (Eur J Med Chem, 2022)
Activity calls are given as the source filed them. The rule behind the calls is not given here.

Columns and labels:
[1] = system: Mus musculus; assay: Anti-inflammatory activity against po dosed LPS-induced ALI C57BL/6 mouse model assessed as decrease in IL-6 level in serum treated 1 hr prior to LPS challenge and measured after 48 hrs by ELISA; type: functional, organism-based; details: dose 2-50 mg/kg, time 49.0 hrs, DDE = dose-dependent effect
[2] = system: Mus musculus; assay: Anti-inflammatory activity against po dosed LPS-induced ALI C57BL/6 mouse model assessed as increase in IL-10 level in serum treated 1 hr prior to LPS challenge and measured after 48 hrs by ELISA; type: functional, organism-based; details: dose 2-50 mg/kg, time 49.0 hrs, DDE = dose-dependent effect
[3] = system: Mus musculus; assay: In vivo inhibition of cathepsin C in po dosed LPS-induced ALI C57BL/6 mouse model assessed as downregulation of PR3 activity in bone marrow treated 1 hr prior to LPS challenge and measured after 48 hrs; type: functional, organism-based; details: dose 2-50 mg/kg, time 49.0 hrs, DDE = dose-dependent effect
[4] = Acute toxicity in ICR mouse assessed as mortality at 1500 mg/kg, po administered as single dose and measured for 7 days; type: organism-based; details: in vivo, time 7 day
[5] = AUC(last) in Sprague-Dawley rat at 10 mg/kg, po measured after 24 hrs by LC-MS/MS analysis; type: ADME, organism-based; parameters: dose 10 mg/kg, time 24 hrs, route po; details: in vivo
[6] = Cmax in Sprague-Dawley rat at 10 mg/kg, po measured after 24 hrs by LC-MS/MS analysis; type: ADME, organism-based; parameters: dose 10 mg/kg, time 24 hrs, route po; details: in vivo
[7] = Acute toxicity in ICR mouse assessed as pathological changes of kidney at 1500 mg/kg, po administered as single dose measured after 7 days by H and E staining based assay; type: organism-based; details: in vivo, time 7 day
[8] = system: Mus musculus; assay: Anti-inflammatory activity against LPS-induced ALI C57BL/6 mouse model assessed as decrease in pulmonary edema by measuring decrease in lung wet/dry ratio at 2 to 50 mg/kg, po treated 1 hr prior to LPS challenge and measured after 48 hrs; type: functional, organism-based; details: dose 2-50 mg/kg, time 49.0 hrs
[9] = target: T1, Dipeptidyl peptidase 1 (Homo sapiens, UniProt P53634); assay: Binding affinity to Cathepsin C in human U-937 cells assessed as increase in thermal stability at 10 uM measured from 46 to 52 degC after 4 hrs by cellular thermal shift assay; type: cell-based
[10] = system: Mus musculus; assay: Anti-inflammatory activity against po dosed LPS-induced ALI C57BL/6 mouse model assessed as decrease in GM-CSF level in serum treated 1 hr prior to LPS challenge and measured after 48 hrs by ELISA; type: functional, organism-based; details: dose 2-50 mg/kg, time 49.0 hrs, DDE = dose-dependent effect
[11] = target: T1, Dipeptidyl peptidase 1; assay: Binding affinity to Cathepsin C in human U-937 cells assessed as increase in thermal stability measured at 52 degC after 4 hrs by cellular thermal shift assay; type: cell-based; details: dose 0.5-10 µM
[12] = target: T1, Dipeptidyl peptidase 1; assay: Inhibition of Cathepsin C in human U-937 cells using H-Gly-Phe-AFC as substrate pretreated for 1 hr followed by substrate addition and incubated for 60 mins by microplate reader assay; type: cell-based
[13] = target: T2, Dipeptidyl peptidase 1 (Mus musculus) (UniProt P97821); assay: Inhibition of Cathepsin C in C57BL/6 mouse Bone marrow cells assessed as reduction of NSPs stability by measuring stability of cathepsin G at 1 uM treated for 48 hrs by Western blotting analysis; type: cell-based; parameters: scale not given: the % may be the effect or the level left; details: Bone marrow cell
T2 sequence (whole entry): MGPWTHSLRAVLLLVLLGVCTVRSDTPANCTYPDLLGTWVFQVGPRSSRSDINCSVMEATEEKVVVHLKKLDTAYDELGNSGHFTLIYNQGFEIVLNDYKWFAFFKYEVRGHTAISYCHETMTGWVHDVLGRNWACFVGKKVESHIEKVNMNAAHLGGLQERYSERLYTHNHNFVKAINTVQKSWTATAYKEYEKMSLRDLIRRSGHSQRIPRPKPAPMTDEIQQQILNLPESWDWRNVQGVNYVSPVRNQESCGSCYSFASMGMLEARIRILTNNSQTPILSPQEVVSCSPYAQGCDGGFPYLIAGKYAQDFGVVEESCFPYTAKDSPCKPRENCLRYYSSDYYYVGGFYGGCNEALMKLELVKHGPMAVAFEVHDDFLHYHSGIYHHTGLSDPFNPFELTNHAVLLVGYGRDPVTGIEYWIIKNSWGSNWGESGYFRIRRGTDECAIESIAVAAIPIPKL

[14] = Half life in Sprague-Dawley rat at 10 mg/kg, po measured for 24 hrs by LC-MS/MS analysis; type: ADME, organism-based; details: in vivo
[15] = Acute toxicity in ICR mouse assessed as pathological changes of liver at 1500 mg/kg, po administered as single dose measured after 7 days by H and E staining based assay; type: organism-based; details: in vivo, time 7 day
[16] = Cmax in Sprague-Dawley rat at 2 mg/kg, iv measured after 24 hrs by LC-MS/MS analysis; type: ADME, organism-based; parameters: time 24 hrs, dose 2 mg/kg, route iv; details: in vivo
[17] = system: Mus musculus; assay: Anti-inflammatory activity against po dosed LPS-induced ALI C57BL/6 mouse model assessed as decrease in GM-CSF level in lungs treated 1 hr prior to LPS challenge and measured after 48 hrs by ELISA; type: functional, organism-based; details: dose 2-50 mg/kg, time 49.0 hrs, DDE = dose-dependent effect
[18] = system: Mus musculus; assay: In vivo inhibition of cathepsin C in po dosed LPS-induced ALI C57BL/6 mouse model assessed as downregulation of PR3 activity in blood treated 1 hr prior to LPS challenge and measured after 48 hrs; type: functional, organism-based; details: dose 2-50 mg/kg, time 49.0 hrs, DDE = dose-dependent effect
[19] = AUC(0 to infinity) in Sprague-Dawley rat at 10 mg/kg, po by LC-MS/MS analysis; type: ADME, organism-based; parameters: time infinity, dose 10 mg/kg, route po; details: in vivo
[20] = Acute toxicity in ICR mouse assessed as pathological changes of heart at 1500 mg/kg, po administered as single dose measured after 7 days by H and E staining based assay; type: organism-based; details: in vivo, time 7 day
[21] = system: Mus musculus; assay: Anti-inflammatory activity against po dosed LPS-induced ALI C57BL/6 mouse model assessed as increase in IL-10 level in lungs treated 1 hr prior to LPS challenge and measured after 48 hrs by ELISA; type: functional, organism-based; details: dose 2-50 mg/kg, time 49.0 hrs, DDE = dose-dependent effect
[22] = target: T1, Dipeptidyl peptidase 1; assay: Inhibition of Cathepsin C in human THP-1 cells using H-Gly-Phe-AFC as substrate pretreated for 1 hr followed by substrate addition and incubated for 60 mins by microplate reader assay; type: cell-based
[23] = Acute toxicity in ICR mouse assessed as pathological changes of lungs at 1500 mg/kg, po administered as single dose measured after 7 days by H and E staining based assay; type: organism-based; details: in vivo, time 7 day
[24] = target: T2, Dipeptidyl peptidase 1 (Mus musculus); assay: Inhibition of Cathepsin C in C57BL/6 mouse Bone marrow cells assessed as reduction of NSPs stability by measuring stability of protease 3 at 1 uM treated for 6 hrs by Western blotting analysis; type: cell-based; parameters: scale not given: the % may be the effect or the level left; details: Bone marrow cell
[25] = AUC(last) in Sprague-Dawley rat at 2 mg/kg, iv measured after 24 hrs by LC-MS/MS analysis; type: ADME, organism-based; parameters: dose 2 mg/kg, time 24 hrs, route iv; details: in vivo
[26] = Acute toxicity in ICR mouse assessed as body weight loss at 1500 mg/kg, po administered as single dose and measured for 7 days; type: organism-based; details: in vivo, time 7 day
[27] = Half life in Sprague-Dawley rat at 2 mg/kg, iv measured for 24 hrs by LC-MS/MS analysis; type: ADME, organism-based; details: in vivo
[28] = target: Cathepsin B (Homo sapiens, UniProt P07858); assay: Inhibition of human recombinant Cathepsin B using Z-Leu-Arg-AMC as substrate pretreated for 60 mins followed by substrate addition and incubated for 30 mins by microplate reader assay
[29] = system: Mus musculus; assay: Anti-inflammatory activity against LPS-induced ALI C57BL/6 mouse model assessed as increase in animal survival rate at 2 to 50 mg/kg, po treated 1 hr prior to LPS challenge and measured after 48 hrs; type: functional, organism-based; details: dose 2-50 mg/kg, time 49.0 hrs

T1 sequence (P53634 25-134 limits assumed): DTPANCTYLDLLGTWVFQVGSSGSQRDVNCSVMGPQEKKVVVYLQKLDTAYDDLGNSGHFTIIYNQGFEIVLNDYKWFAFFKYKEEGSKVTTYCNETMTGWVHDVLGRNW
T1 sequence (P53634 231-394 limits assumed): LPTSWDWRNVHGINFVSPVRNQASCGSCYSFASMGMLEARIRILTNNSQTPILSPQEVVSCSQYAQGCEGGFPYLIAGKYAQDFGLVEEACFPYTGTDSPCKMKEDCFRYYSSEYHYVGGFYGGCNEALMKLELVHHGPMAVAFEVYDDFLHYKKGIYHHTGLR
T1 sequence (P53634 395-463 limits assumed): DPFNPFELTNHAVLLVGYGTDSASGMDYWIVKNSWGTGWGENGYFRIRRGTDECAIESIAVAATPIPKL

With `CC(=O)Nc1cccc(Nc2nc(Nc3ccc(-c4ccsc4)cn3)ncc2Cl)c1` the Activity [1] was “Dde”, the Activity [2] was “Dde” and the inhibition [3] was “Dde”. For the same compound, the Activity [4] was “Non-Toxic”, the AUC(0-t) at 24 h [5] was 511 ng·h/mL and the Cmax [6] was 177 ng/mL. For the same compound, the Activity [7] was “Non-Toxic”, the Activity [8] was “Active” and the Activity [9] was “Active”. The Activity [10] was “Dde”, the Activity [11] was “Active” and the IC50 [12] was 0.0702 µM. The Activity [13] was 50.1%, the half-life [14] was 1.79 h and the Activity [15] was “Non-Toxic”. For the same compound, the Cmax [16] was 309 ng/mL, the Activity [17] was “Dde” and the inhibition [18] was “Dde”. For the same compound, the AUC [19] was 473.18 ng·h/mL, the Activity [20] was “Non-Toxic” and the Activity [21] was “Dde”. For the same compound, the IC50 [22] was 0.115 µM, the Activity [23] was “Non-Toxic” and the Activity [24] was 95.6%. For the same compound, the AUC(0-t) at 24 h [25] was 1440 ng·h/mL, the Activity [26] was “Non-Toxic” and the half-life [27] was 2.5 h. For the same compound, the IC50 [28] was over 5 µM and the Activity [29] was “Active”.
